Legend:
BRD9 [1] = molecular target: T1, BRD9 (Homo sapiens, UniProt Q9H8M2); test: Degradation of BRD9 (IF), immunofluorescence in MV4-11 cells, 24 hours (Assay Protocol 2); type: cell-based; design: A suspension of MV4-11 cells (ATCC CRL-9591) was prepared; host or cells: MV4-11
T1 sequence (Q9H8M2 1-597): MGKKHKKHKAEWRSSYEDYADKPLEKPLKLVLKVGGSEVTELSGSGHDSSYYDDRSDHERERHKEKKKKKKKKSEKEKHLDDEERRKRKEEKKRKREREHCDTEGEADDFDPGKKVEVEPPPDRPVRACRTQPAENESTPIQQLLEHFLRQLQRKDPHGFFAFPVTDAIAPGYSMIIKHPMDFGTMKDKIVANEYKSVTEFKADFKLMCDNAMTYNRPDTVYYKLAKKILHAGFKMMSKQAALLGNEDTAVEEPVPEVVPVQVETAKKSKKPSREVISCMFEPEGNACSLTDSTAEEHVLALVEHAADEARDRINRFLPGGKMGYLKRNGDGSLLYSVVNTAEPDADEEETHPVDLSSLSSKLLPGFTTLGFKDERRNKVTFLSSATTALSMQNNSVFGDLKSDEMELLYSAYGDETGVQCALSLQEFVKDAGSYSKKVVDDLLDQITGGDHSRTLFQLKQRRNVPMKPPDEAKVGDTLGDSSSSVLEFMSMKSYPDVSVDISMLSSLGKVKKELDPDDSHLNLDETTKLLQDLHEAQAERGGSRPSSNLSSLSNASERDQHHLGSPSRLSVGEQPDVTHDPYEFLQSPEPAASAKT
In short: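 MV4-11 cells treated with compound 24 h at 37° C., then fixed, permeabilised and immunostained for BRD9 (anti-BRD9 E4Q3F, Alexa 647 secondary, Hoechst counterstain). High-content imaging quantified nuclear BRD9 signal; % BRD9 remaining normalised to DMSO and 100 nM CFT-8634 controls.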

BRD9 [2] = molecular target: T1, BRD9; test: BRD9 degradation, HiBiT-BRD9 KI HEK293 (LgBiT) cells, NanoGlo Lytic Endpoint assay (Assay Protocol 1); type: cell-based; conditions: BRD9 degradation; for Dmax / Dmax at 1 µM: HEK293; for Dmax at 1 µM: 1 μM compound at 6 h of treatment, read-out: Assay 1 Dmax
In short: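 HiBiT-tagged BRD9 knock-in HEK293 (LgBiT) cells exposed to compounds for 6 h at 37 °C, 5% CO2. Residual BRD9 measured by HiBiT lytic luminescence. % BRD9 remaining normalised to DMSO-treated cells (high) and no-cell wells (low).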

[3] = Assay protocol 2, BRD9 degradation, read-out: DC50
[4] = MV4-11, Assay protocol 2, BRD9 degradation, read-out: Dmax
[5] = Assay protocol 1, read-out: DC50
[6] = Assay protocol 1, read-out: Dmax
[7] = MV4-11, Table 4, BRD9 degradation, determined according to Assay Protocol 2, read-out: Dmax^2
[8] = Table 4, BRD9 degradation, determined according to Assay Protocol 2, read-out: DC50^2
[9] = Table 4, determined according to Assay Protocol 1, read-out: Dmax^1
[10] = Table 4, determined according to Assay Protocol 1, read-out: DC50^1
[11] = MV4-11, 24 h, Table 2, BRD9 degradation (IF), Assay Protocol 2, MV4-11 cells, read-out: Assay 2 DCmax
[12] = Table 2, Assay Protocol 1, 6 h of treatment, read-out: Assay 1 DC50
[13] = Table 2, BRD9 degradation (IF), Assay Protocol 2, MV4-11 cells, read-out: Assay 2 DC50

Structure (SMILES)	DC50 (BRD9 [1]; [3])	Dmax (BRD9 [1]; [4])	DC50 (BRD9 [2]; [5])	Dmax (BRD9 [2]; [6])	other results
COc1cc(-c2cn(C)c(=O)c(C)c2C)cc(OC)c1CN1CC(Oc2ccc3c(c2)CCN(C(=O)/C(C#N)=C/c2cccc(Br)n2)C3C)C1 (mixture of isomers) [Compound B57, (E/Z)-3-(6-bromopyridin-2-yl)-2-(6-((1-(2,6-dimethoxy-4-(1,4,5-trimethyl-6-oxo-1,6-dihydropyridin-3-yl)benzyl)azetidin-3-yl)oxy)-1-methyl-1,2,3,4-tetrahydroisoquinoline-2-carbonyl)acrylonitrile]	< 0.00125 µM	40 to 70%	< 0.00125 µM	40 to 70%	–
COc1cc(-c2cn(C)c(=O)c(C)c2C)cc(OC)c1CN1CCN(C(=O)[C@@H]2CN(C(=O)/C(C#N)=C/c3nccs3)C[C@H]2c2ccccc2)CC1 [Compound B28]	–	40 to 70%	–	25 to 40%	–
COc1cc(-c2cn(C)c(=O)c(C)c2C)cc(OC)c1CN1CC2CC(C1)N2Cc1cccc2c1CCN(C(=O)/C(C#N)=C/c1cccc(Br)n1)C2C (mixture of isomers) [Compound B7, (E/Z)-3-(6-bromopyridin-2-yl)-2-(5-((3-(2,6-dimethoxy-4-(1,4,5-trimethyl-6-oxo-1,6-dihydropyridin-3-yl)benzyl)-3,6-diazabicyclo[3.1.1]heptan-6-yl)methyl)-1-methyl-1,2,3,4-tetrahydroisoquinoline-2-carbonyl)acrylonitrile]	< 0.00125 µM	40 to 70%	0.00125 to 0.01 µM	40 to 70%	–
COc1cc(-c2cn(C)c(=O)c(C)c2C)cc(OC)c1CN(C)Cc1cccc2c1CCN(C(=O)/C(C#N)=C/c1cccc(C(F)(F)F)n1)C2C (mixture of isomers) [Compound B15, (E/Z)-2-(5-(((2,6-dimethoxy-4-(1,4,5-trimethyl-6-oxo-1,6-dihydropyridin-3-yl)benzyl)(methyl)amino)methyl)-1-methyl-1,2,3,4-tetrahydroisoquinoline-2-carbonyl)-3-(6-(trifluoromethyl)pyridin-2-yl)acrylonitrile]	< 0.00125 µM	> 75%	0.00125 to 0.01 µM	> 75%	–
COc1cc(-c2cn(C)c(=O)c(C)c2C)cc(OC)c1CN1CCN(C(=O)/C(C#N)=C/C(C)(C)C)CC12CC2 [BRD9f, (E/Z)-2-(4-(2,6-dimethoxy-4-(1,4,5-trimethyl-6-oxo-1,6-dihydropyridin-3-yl)benzyl)-4,7-diazaspiro[2.5]octane-7-carbonyl)-4,4-dimethylpent-2-enenitrile]	–	–	–	–	Dmax (BRD9 [1]; [7]): 50 to 70%; DC50 (BRD9 [1]; [8]): < 0.025 µM; Dmax (BRD9 [2]; [9]): 50 to 70%; DC50 (BRD9 [2]; [10]): < 0.025 µM
COc1cc(-c2cn(C)c(=O)c3cnccc23)cc(OC)c1CN1CCC(Oc2cccc3c2CCN(C(=O)/C(C#N)=C/C(C)(C)C)C3C)CC1 (mixture of isomers) [Compound A28, (E/Z)-2-(5-((1-(2,6-dimethoxy-4-(2-methyl-1-oxo-1,2-dihydro-2,7-naphthyridin-4-yl)benzyl)piperidin-4-yl)oxy)-1-methyl-1,2,3,4-tetrahydroisoquinoline-2-carbonyl)-4,4-dimethylpent-2-enenitrile]	–	–	–	–	Dmax (BRD9 [1]; [11]): 40 to 70%; Dmax at 1 µM (BRD9 [2]; Table 2, Assay Protocol 1): 40 to 70%; DC50 (BRD9 [2]; [12]): 0.00125 to 0.01 µM
COc1ccc([C@@H]2CN(C(=O)/C(C#N)=C/c3nccs3)C[C@H]2C(=O)N2CCN(Cc3c(OC)cc(-c4cn(C)c(=O)c(C)c4C)cc3OC)CC2)cc1 [Compound B27]	0.00125 to 0.01 µM	> 75%	–	40 to 70%	–
COc1cc(-c2cn(C)c(=O)c(C)c2C)cc(OC)c1CN1CC2CCC(C1)N2Cc1cccc2c1CCN(C(=O)/C(C#N)=C/C(C)(C)C)C2C (mixture of isomers) [Compound B3, (E/Z)-2-(5-((3-(2,6-dimethoxy-4-(1,4,5-trimethyl-6-oxo-1,6-dihydropyridin-3-yl)benzyl)-3,8-diazabicyclo[3.2.1]octan-8-yl)methyl)-1-methyl-1,2,3,4-tetrahydroisoquinoline-2-carbonyl)-4,4-dimethylpent-2-enenitrile]	0.01 to 0.025 µM	> 75%	0.01 to 0.025 µM	> 75%	–
COc1cc(-c2cn(C)c(=O)c(C)c2C)cc(OC)c1CN1CCN(Cc2cccc3c2CCN(C(=O)/C(C#N)=C/C2(C)COC2)C3C)CC1 (mixture of isomers) [Compound A51, (E/Z)-2-[5-[[4-[[2,6-dimethoxy-4-(1,4,5-trimethyl-6-oxo-3-pyridyl)phenyl]methyl]piperazin-1-yl]methyl]-1-methyl-3,4-dihydro-1H-isoquinoline-2-carbonyl]-3-(3-methyloxetan-3-yl)prop-2-enenitrile]	–	–	–	–	Dmax (BRD9 [1]; [11]): 40 to 70%; DC50 (BRD9 [1]; [13]): < 0.00125 µM; Dmax at 1 µM (BRD9 [2]; Table 2, Assay Protocol 1): 40 to 70%; DC50 (BRD9 [2]; [12]): 0.00125 to 0.01 µM
COc1ccc(C2CC(C(=O)N3CCN(Cc4c(OC)cc(-c5cn(C)c(=O)c(C)c5C)cc4OC)CC3)CN(C(=O)/C(C#N)=C/C(C)(C)C)C2)cc1 (stereo not shown) [Compound B208]	–	–	–	–	Dmax (BRD9 [1]; [7]): > 70%; DC50 (BRD9 [1]; [8]): < 0.025 µM; Dmax (BRD9 [2]; [9]): > 70%; DC50 (BRD9 [2]; [10]): < 0.025 µM
COc1cc(-c2cn(C)c(=O)c(C)c2C)cc(OC)c1CN1CCN(Cc2cccc3c2CCN(C(=O)/C(C#N)=C/C2(C)CC2)C3C)CC1 (mixture of isomers) [Compound C27, (E/Z)-2-(5-((4-(2,6-dimethoxy-4-(1,4,5-trimethyl-6-oxo-1,6-dihydropyridin-3-yl)benzyl)piperazin-1-yl)methyl)-1-methyl-1,2,3,4-tetrahydroisoquinoline-2-carbonyl)-3-(1-methylcyclopropyl)acrylonitrile]	> 1 µM	40 to 70%	> 1 µM	40 to 70%	–
COc1cc(-c2cn(C)c(=O)c(C)c2C)cc(OC)c1CN1CCC2(CC1)CN(c1cccc(C3CCCN3C(=O)C(C#N)=CC(C)(C)C)c1)C2 (single isomer, unassigned) [Compound B43, 2-(2-(3-(7-(2,6-dimethoxy-4-(1,4,5-trimethyl-6-oxo-1,6-dihydropyridin-3-yl)benzyl)-2,7-diazaspiro[3.5]nonan-2-yl)phenyl)pyrrolidine-1-carbonyl)-4,4-dimethylpent-2-enenitrile]	0.00125 to 0.01 µM	40 to 70%	< 0.00125 µM	40 to 70%	–
COc1cc(-c2cn(C)c(=O)c3cc(C(=O)NCCCCCOc4ccc5c(c4)CCN(C(=O)/C(C#N)=C/c4nccs4)C5C)sc23)cc(OC)c1CN(C)C (mixture of isomers) [Compound A75, (E/Z)—N-(5-((2-(2-cyano-3-(thiazol-2-yl)acryloyl)-1-methyl-1,2,3,4-tetrahydroisoquinolin-6-yl)oxy)pentyl)-7-(4-((dimethylamino)methyl)-3,5-dimethoxyphenyl)-5-methyl-4-oxo-4,5-dihydrothieno[3,2-c]pyridine-2-carboxamide]	–	–	–	–	Dmax (BRD9 [1]; [11]): > 75%; DC50 (BRD9 [1]; [13]): 0.00125 to 0.01 µM; Dmax at 1 µM (BRD9 [2]; Table 2, Assay Protocol 1): 40 to 70%; DC50 (BRD9 [2]; [12]): 0.025 to 0.3 µM
COc1cc(-c2cn(C)c(=O)c(C)c2C)cc(OC)c1CN1CCN(Cc2cccc3c2CCN(C(=O)/C(C#N)=C/c2ncccc2C(F)(F)F)C3C)CC1 (mixture of isomers) [Compound B49, (E/Z)-2-(5-((4-(2,6-dimethoxy-4-(1,4,5-trimethyl-6-oxo-1,6-dihydropyridin-3-yl)benzyl)piperazin-1-yl)methyl)-1-methyl-1,2,3,4-tetrahydroisoquinoline-2-carbonyl)-3-(3-(trifluoromethyl)pyridin-2-yl)acrylonitrile]	0.01 to 0.025 µM	40 to 70%	< 0.00125 µM	40 to 70%	–
COc1cccnc1/C=C(\C#N)C(=O)N1CCc2c(CN3CCN(Cc4c(OC)cc(-c5cn(C)c(=O)c(C)c5C)cc4OC)CC3)cccc2C1C (mixture of isomers) [Compound B51, (E/Z)-2-(5-((4-(2,6-dimethoxy-4-(1,4,5-trimethyl-6-oxo-1,6-dihydropyridin-3-yl)benzyl)piperazin-1-yl)methyl)-1-methyl-1,2,3,4-tetrahydroisoquinoline-2-carbonyl)-3-(3-methoxypyridin-2-yl)acrylonitrile]	–	25 to 40%	0.00125 to 0.01 µM	40 to 70%	–
COc1cc(-c2cn(C)c(=O)c(C)c2C)cc(OC)c1C(=O)N(C)C1CCN(C(=O)/C(C#N)=C/C(C)(C)C)CC1 [BRD9u]	–	–	–	–	Dmax (BRD9 [1]; [7]): 30 to 50%; DC50 (BRD9 [1]; [8]): < 0.025 µM; Dmax (BRD9 [2]; [9]): 30 to 50%

— patent US20260092061A1, “COMPOUNDS FOR TARGETED PROTEIN DEGRADATION” (Amphista Therapeutics Limited, priority 2022, published 2026)
